Laboratory results as given in ChEMBL document CHEMBL4118118, “Hydrophobic structure of hairpin ten-ring pyrrole-imidazole polyamides enhances tumor tissue accumulation/retention in vivo” (Bioorg Med Chem, 2018).

Key:
[1] = Octanol water partition coefficient, log P of the compound by reverse-phase HPLC method; format: physicochemical
[2] = Retention time of the compound by reverse-phase HPLC method; format: physicochemical
[3] = Drug localization in nucleus of human SW480 cells at 1 uM after 2 hrs by DAPI-fluoresecence based confocal laser microscopy; format: ADME, subcellular; settings: sw480, 2 h
[4] = Drug uptake in tumor of nude BALB/c mouse xenografted with human LS180 cells at 1 mg/kg, iv measured at 3 days post administration by DAPI-based confocal laser microscopic analysis; format: ADME, organism-based, Neoplasm; settings: in vivo, 72 h
[5] = Drug uptake in spleen of nude BALB/c mouse xenografted with human LS180 cells at 1 mg/kg, iv measured at 3 to 9 days post administration by DAPI-based confocal laser microscopic analysis; format: ADME, organism-based; settings: in vivo
[6] = Drug uptake in tumor of nude BALB/c mouse xenografted with human LS180 cells at 1 mg/kg, iv measured at 9 days post administration by DAPI-based confocal laser microscopic analysis; format: ADME, organism-based, Neoplasm; settings: in vivo, 216 h
[7] = Drug uptake in liver of nude BALB/c mouse xenografted with human LS180 cells at 1 mg/kg, iv measured at 3 days post administration by DAPI-based confocal laser microscopic analysis; format: ADME, organism-based; settings: in vivo, 72 h
[8] = Drug uptake in tumor of nude BALB/c mouse xenografted with human LS180 cells at 1 mg/kg, iv measured at 2 hrs post administration by fluorescence-based imaging analysis; format: ADME, organism-based, Neoplasm; settings: in vivo
[9] = Drug uptake in human SW480 cells up to 1 uM after 24 hrs by fluorospectrometry; format: ADME, cell-based; settings: sw480, 24 h
[10] = Drug uptake in tumor of nude BALB/c mouse xenografted with human LS180 cells assessed as mean fluorescence intensity at 1 mg/kg, iv measured at 72 hrs post administration by fluorescence-based imaging analysis; format: ADME, organism-based, Neoplasm; settings: in vivo
[11] = Drug uptake in tumor of nude BALB/c mouse xenografted with human LS180 cells at 1 mg/kg, iv measured after 9 days post administration by fluorescence-based imaging analysis; format: ADME, organism-based, Neoplasm; settings: in vivo, 216 h
[12] = Drug uptake in human LS180 cells up to 1 uM after 24 hrs by fluorospectrometry; format: ADME, cell-based; settings: ls180, 24 h
Mus musculus [13] = assay: Drug uptake in non-tumor tissue area of nude BALB/c mouse xenografted with human LS180 cells assessed as increase in mean fluorescence intensity at 1 mg/kg, iv measured at 24 hrs post administration by fluorescence-based imaging analysis; format: ADME, organism-based; settings: in vivo
[14] = Drug localization in nucleus of human LS180 cells at 1 uM after 2 hrs by DAPI-fluoresecence based confocal laser microscopy; format: ADME, subcellular; settings: ls180, 2 h
[15] = Drug uptake in heart of nude BALB/c mouse xenografted with human LS180 cells at 1 mg/kg, iv measured at 3 to 9 days post administration by DAPI-based confocal laser microscopic analysis; format: ADME, organism-based; settings: in vivo
Mus musculus [16] = assay: Drug uptake in non-tumor tissue area of nude BALB/c mouse xenografted with human LS180 cells assessed as increase in mean fluorescence intensity at 1 mg/kg, iv measured at 5 mins post administration by fluorescence-based imaging analysis; format: ADME, organism-based; settings: in vivo
[17] = Drug uptake in kidneys of nude BALB/c mouse xenografted with human LS180 cells at 1 mg/kg, iv measured at 3 days post administration by DAPI-based confocal laser microscopic analysis; format: ADME, organism-based, Kidney; settings: in vivo, 72 h
[18] = Drug uptake in tumor of nude BALB/c mouse xenografted with human LS180 cells assessed as increase in mean fluorescence intensity at 1 mg/kg, iv measured at 6 hrs post administration by fluorescence-based imaging analysis; format: ADME, organism-based, Neoplasm; settings: in vivo
[19] = Drug uptake in tumor of human SW480 cells xenografted in nude BALB/c mouse assessed as increase in mean fluorescence intensity at 1 mg/kg, iv measured at 0.25 to 72 hrs post administration by fluorescence-based imaging analysis; format: ADME, organism-based, Neoplasm; settings: in vivo
[20] = Drug uptake in tumor of nude BALB/c mouse xenografted with human LS180 cells at 1 mg/kg, iv measured at 48 hrs post administration by fluorescence-based imaging analysis; format: ADME, organism-based, Neoplasm; settings: in vivo
[21] = Drug uptake in lungs of nude BALB/c mouse xenografted with human LS180 cells at 1 mg/kg, iv measured at 3 to 9 days post administration by DAPI-based confocal laser microscopic analysis; format: ADME, organism-based, Lung; settings: in vivo
[22] = Drug uptake in tumor of nude BALB/c mouse xenografted with human LS180 cells assessed as increase in mean fluorescence intensity at 1 mg/kg, iv measured at 0.25 to 72 hrs post administration by fluorescence-based imaging analysis; format: ADME, organism-based, Neoplasm; settings: in vivo
[23] = Drug uptake in human LS180 cells up to 1 uM in presence of 4 degC temperature for 2 hrs by fluorospectrometry; format: ADME, cell-based; settings: ls180, 2 h
[24] = Drug uptake in tumor of nude BALB/c mouse xenografted with human LS180 cells at 1 mg/kg, iv measured after 4 days post administration by fluorescence-based imaging analysis; format: ADME, organism-based, Neoplasm; settings: in vivo, 96 h
[25] = Drug uptake in tumor of nude BALB/c mouse xenografted with human LS180 cells assessed as increase in mean fluorescence intensity at 1 mg/kg, iv measured at 3 hrs post administration by fluorescence-based imaging analysis; format: ADME, organism-based, Neoplasm; settings: in vivo
[26] = Drug uptake in tumor of nude BALB/c mouse xenografted with human LS180 cells assessed as increase in mean fluorescence intensity at 1 mg/kg, iv measured at 48 hrs post administration by fluorescence-based imaging analysis; format: ADME, organism-based, Neoplasm; settings: in vivo
[27] = Drug uptake in nude BALB/c mouse body cavity xenografted with human LS180 cells assessed as increase in mean fluorescence intensity at 1 mg/kg, iv measured at 24 hrs post administration by fluorescence-based imaging analysis; format: ADME, organism-based; settings: in vivo
[28] = Drug uptake in nude BALB/c mouse body cavity xenografted with human LS180 cells assessed as increase in mean fluorescence intensity at 1 mg/kg, iv measured at 1 hr post administration by fluorescence-based imaging analysis; format: ADME, organism-based; settings: in vivo
[29] = Drug uptake in human LS180 cells after 24 hrs by fluorospectrometry; format: ADME, cell-based; settings: ls180, 24 h
[30] = Drug uptake in tumor of nude BALB/c mouse xenografted with human SW480 cells at 1 mg/kg, iv measured up to 22 days post administration by fluorescence-based imaging analysis; format: ADME, organism-based, Neoplasm; settings: in vivo, 528 h
[31] = Drug uptake in human SW480 cells xenografted in nude BALB/c mouse at 1 mg/kg, iv measured after 9 days post administration by fluorescence-based imaging analysis; format: ADME, organism-based, Neoplasm; settings: in vivo, 216 h
[32] = Drug uptake in human SW480 cells after 24 hrs by fluorospectrometry; format: ADME, cell-based; settings: sw480, 24 h
[33] = Drug uptake in tumor of nude BALB/c mouse xenografted with human LS180 cells assessed as increase in mean fluorescence intensity at 1 mg/kg, iv measured at 3 to 72 hrs post administration by fluorescence-based imaging analysis; format: ADME, organism-based, Neoplasm; settings: in vivo

Compound	logP [1]	Retention_time [2] [min]	Drug uptake [3]	Drug uptake [4]	Drug uptake [5]	Drug uptake [6]	Drug uptake [7]	Drug uptake [8]	Drug uptake [9]	Drug uptake [11]	Drug uptake [12]	Drug uptake [14]	Drug uptake [15]	Drug uptake [17]	Drug uptake [19]	Drug uptake [20] [%]	Drug uptake [21]	Drug uptake [23]	Drug uptake [27]	further results
CN(C)CCCNC(=O)CCNC(=O)c1cc(NC(=O)c2cc(NC(=O)CCNC(=O)c3cc(NC(=O)c4cc(NC(=O)c5cc(NC(=O)CCCNC(=O)c6cc(NC(=O)c7nc(NC(=O)c8nc(NC(=O)CCNC(=O)c9nc(NC(=O)c%10nc(NC(=O)CCNC(=S)Nc%11ccc(-c%12c%13ccc(=O)cc-%13oc%13cc(O)ccc%12%13)c(C(=O)O)c%11)cn%10C)cn9C)cn8C)cn7C)cn6C)cn5C)cn4C)cn3C)cn2C)cn1C	1.36	10.48																		
CN(C)CCCNC(=O)CCNC(=O)c1cc(NC(=O)c2cc(NC(=O)CCNC(=O)c3cc(NC(=O)c4cc(NC(=O)c5cc(NC(=O)CCCNC(=O)c6cc(NC(=O)c7cc(NC(=O)c8nc(NC(=O)CCNC(=O)c9nc(NC(=O)c%10nc(NC(=O)CCNC(=S)Nc%11ccc(-c%12c%13ccc(=O)cc-%13oc%13cc(O)ccc%12%13)c(C(=O)O)c%11)cn%10C)cn9C)cn8C)cn7C)cn6C)cn5C)cn4C)cn3C)cn2C)cn1C	1.42	10.97	Active	Active	Not Active	Not Active	Active	Active	Active	Not Active	Active	Active	Not Active	Active	Active	50	Not Active			Drug uptake [10]: Active; Drug uptake (Mus musculus [13]): Not Active; Drug uptake (Mus musculus [16]): Active; Drug uptake [18]: Active
O=C(O)c1ccccc1-c1c2ccc(=O)cc-2oc2cc(O)ccc12			Not Active									Not Active								Drug uptake [22]: Not Active
CN(C)CCCNC(=O)CCNC(=O)c1cc(NC(=O)c2cc(NC(=O)CCNC(=O)c3cc(NC(=O)c4cc(NC(=O)c5cc(NC(=O)CCCNC(=O)c6nc(NC(=O)c7nc(NC(=O)c8nc(NC(=O)CCNC(=O)c9nc(NC(=O)c%10nc(NC(=O)CCNC(=S)Nc%11ccc(-c%12c%13ccc(=O)cc-%13oc%13cc(O)ccc%12%13)c(C(=O)O)c%11)cn%10C)cn9C)cn8C)cn7C)cn6C)cn5C)cn4C)cn3C)cn2C)cn1C	1.19	8.86	Active	Active	Not Active	Not Active	Active	Active	Active		Active	Active	Not Active	Active	Active	50	Not Active	Not Active	Not Active	Drug uptake [24]: Not Active; Drug uptake [25]: Active; Drug uptake [26]: Not Active
CN(C)CCCNC(=O)CCNC(=O)c1cc(NC(=O)c2cc(NC(=O)CCNC(=O)c3cc(NC(=O)c4cc(NC(=O)c5cc(NC(=O)CCCNC(=O)c6cc(NC(=O)c7cc(NC(=O)c8cc(NC(=O)CCNC(=O)c9nc(NC(=O)c%10nc(NC(=O)CCNC(=S)Nc%11ccc(-c%12c%13ccc(=O)cc-%13oc%13cc(O)ccc%12%13)c(C(=O)O)c%11)cn%10C)cn9C)cn8C)cn7C)cn6C)cn5C)cn4C)cn3C)cn2C)cn1C	1.46	11.4																		
CN(C)CCCNC(=O)CCNC(=O)c1cc(NC(=O)c2cc(NC(=O)CCNC(=O)c3cc(NC(=O)c4cc(NC(=O)c5cc(NC(=O)CCCNC(=O)c6cc(NC(=O)c7cc(NC(=O)c8cc(NC(=O)CCNC(=O)c9nc(NC(=O)c%10cc(NC(=O)CCNC(=S)Nc%11ccc(-c%12c%13ccc(=O)cc-%13oc%13cc(O)ccc%12%13)c(C(=O)O)c%11)cn%10C)cn9C)cn8C)cn7C)cn6C)cn5C)cn4C)cn3C)cn2C)cn1C	1.5	11.73	Active	Active	Not Active	Active	Active	Active		Active		Active	Not Active	Active	Active	50	Not Active	Active	Not Active	Drug uptake [28]: Active; Drug uptake [29]: Dose-dependent effect; Drug uptake [30]: Active; Drug uptake [31]: Active; Drug uptake [32]: Dose-dependent effect; Drug uptake [33]: Active
